This is an account of results in patent publication US20160264616A1, “THERAPEUTIC COMPOUNDS AND METHODS” (priority 2015, published 2016).

Entries after “also recorded” stand apart in the source; their conditions may differ. Where two headings read alike, the source gives them in different places.

In test [1] the target is T1, RGS17 (Homo sapiens, UniProt Q9UGC6).
T1 construct: This is the same RGS17 construct used in the high throughput screening campaign that is fully active despite the N-terminal truncation; made in house
T1 sequence (Q9UGC6 84-200 limits assumed): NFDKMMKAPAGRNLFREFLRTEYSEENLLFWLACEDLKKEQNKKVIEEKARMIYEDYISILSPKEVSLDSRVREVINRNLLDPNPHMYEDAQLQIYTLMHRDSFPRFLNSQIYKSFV
In words: MALDI-TOF mass spectrometry for covalent adducts. The settings on record: two-fold molar excess of compound, one hour. Here is the method:
Matrix-assisted laser desorption ionization time of flight (MALDI-TOF) mass spectrometry was employed to evaluate if lead compounds were capable of covalently modifying RGS17's RGS homology domain. Covalent adducts on RGS17 were not detected with any compounds using two-fold molar excess of compound when incubated for one hour with RGS17ΔN (FIG. 8). For all samples, the only species that were observed were singly and doubly charged unmodified, intact protein with mass-to-charge ratios of […], respectively.
Following treatment with compound, buffer was exchanged for 25 mM ammonium bicarbonate using an Amicon Ultra 10K 0.5 mL centrifugal filtration device (Millipore, Billerica, Mass.). Intact protein molecular weight was then assessed by matrix-assisted laser desorption/ionization-time of flight (MALDI-TOF) mass spectrometry. This was accomplished using a Bruker ultrafleXtreme in the linear TOF mode, employing 384-well Anchor chip targets (Billerica, Mass.). MALDI matrix reagents sinapinic acid and alpha-Cyano-4-hydroxycinnamic acid, purchased from Bruker, were reconstituted to 5 mg/ml in a 1:1 solution of acetonitrile and aqueous 0.1% formic acid (Billerica, Mass.). Samples in ammonium bicarbonate were diluted to 5 μM in aqueous 0.1% formic acid and introduced to target as a 1:1 solution of protein sample to MALDI matrix buffer. After crystal drying, samples were desalted on the target plate using aqueous 0.1% TFA. The laser was configured to emit pulses at 200 Hz at an optimal wavelength of 355 nm, and input energy of 500 μJ/pulse was attenuated 80-90%. Mass scale was calibrated using horse heart myoglobin, and 2000 shots were acquired per spectra.

Test [2] addresses T1, RGS17. Nature of the test: Differential scanning fluorimetry (DSF) with RGS17. The settings on record: 50 μM compound; for effect on RGS17 thermal stability (DSF): versus DMSO. In kind it is binding. The procedure:
Further evaluation of the compounds designated UI-5, UI-1590, UI-1907 and UI-1956 was conducted using Differential Scanning Fluorimetry (DSF). This method allows for the rapid measurement of protein stability based on the melting temperature (Tm) of the target protein that is bound by ligand. A shift of Tm indicates a change in protein stability to melting due to stabilization added by the small molecule binding to the target protein. The four compounds were incubated at 50 μM with RGS17 or Gαo in the presence of Sypro Orange. In aqueous solution the fluorescence emission from the dye is very weak. However, when the dye binds to hydrophobic regions of a protein a significant increase in florescence intensity is observed intensity (20). The hydrophobic parts of a native, fully folded, protein in solution are generally buried within the protein and therefore not accessible to the dye resulting in little fluorescence emission. When the protein unfolds the dye molecules can bind to the exposed hydrophobic regions of the proteins, resulting in increased fluorescence. […] UI-5, UI-1590 and UI-1956 shifted RGS17's Tm by 2.1° C., 1.4° C. and 1.0° C., respectively (FIG. 4B). These three compounds were further characterized for activity against RGS17.
Differential scanning fluorimetry experiments were carried out using white 384-well μltraAMP PCR plates (Sorenson BioSciences; Salt Lake City, Utah). All experiments were carried out as previously described by Phillips and Hernandez de la Pena.(55) In brief, a 1:2000 dilution of Sypro Orange was made by adding 1 μL of Sypro Orange to 2 mL of PBS at pH 7.5. First, 1.2 mg/mL protein was incubated with 50 μM of each compound at room temperature for 15 min in a 10 μL volume. Upon completion of the incubation, 110 μL of the Sypro Orange-PBS solution was added to each compound/protein mixture. This yielded a final volume of 120 μL containing 0.1 mg/mL protein. Finally, 20 μL of the Sypro Orange/compound/protein mix for each compound and RGS17 or Gαo proteins was added to four wells of the 384-well plate. The experiment was run on the Roche LightCycler 480 (Roche, Switzerland) using a two-step method. Starting with a 25° C. baseline step and a second step with a target temperature of 95° C. with continuous acquisition and set acquisition rate of 3 per ° C. All data was collected using the Roche LightCycler data acquisition ability and analyzed with Graphpad Prism 6.0, using first and second derivatives of the fluorescent melting curves.

For test [3], the target named is T2, Gαo:RGS17 protein:protein interaction (Homo sapiens, UniProt Q9UGC6).
T2 construct: This is the same RGS17 construct used in the high throughput screening campaign that is fully active despite the N-terminal truncation; made in house; host or cells: BL21 (DE3) E. coli for Gαo
T2 sequence (Q9UGC6 84-200 limits assumed): T1 sequence (Q9UGC6 84-200 limits assumed)
In words: AlphaScreen Gαo:RGS17 protein:protein interaction assay (HTS and dose-response). The settings on record: for inhibition of the interaction of RGS17 with Gαo: AlphaScreen dose-response, n=3 in triplicate; for inhibition at 100 µM: read-out: inhibition of the AlphaScreen assay. The format is binding. The procedure:
The primary biochemical screen was designed to identify compounds that function as inhibitors of the Gαo:RGS17 ppi. This was accomplished by miniaturizing our previously published HTS paradigm in a 1536-well format (17). […] We interrogated the 2320 compound containing MicroSource […] Diversity library (Discovery Systems, Inc. Gaylordsville, Conn.) (FIG. 3).
In total, 2,320 compounds from the MicroSource […] chemical library were screened at a concentration of 40 μM. Two 1536-well plates containing 1,280 compounds and 128 wells of DMSO controls were used. RGS17-anti-GST and Gαo-biotin-streptavidin beads were prepared as previously described. In brief, 100 μg (20 μL) of beads were coupled to 20 ng (10 nM) of each binding partner (Gαo:RGS17) and incubated for 30 min on ice. Then, 4.5 μL of RGS17-anti-GST beads were added using a FlexDrop IV (PerkinElmer, Waltham, Mass.) and incubated for 10 min with compound while the Gαo-biotin-streptavidin beads were incubated with AMF. After incubation, 4.5 μL of the Gαo-biotin-streptavidin bead/protein mixture was added to compound containing wells and incubated on ice for 1.25 hours and read at room temperature using the EnVision plate reader with monochromators.
Experiments were carried out similarly to the high-throughput AlphaScreen assay except this was completed using Corning 384-well white flat bottom plates and the final total volume was 60 μL, with 20 µL of Gαo-biotin-streptavidin and RGS17-anti-GST beads at a final concentration of 10 nM. Then, 20 μL of compounds in a half log dilution series to yield a final range from 1 nM to 100 μM was added to RGS17-anti-GST beads and incubated for 10 min in the dark on ice. Next, 20 μL of Gαo-biotin-streptavidin beads were then added in the presence of AMF and GDP. Negative controls were determined in the absence of AMF and compound. Maximum binding was determined in the absence of compounds but in the presence of AMF and GDP.
(In Alpha technology, singlet oxygen from a donor bead excites a nearby acceptor bead.)

One may read the inhibition as the percentage by which the read-out fell short of the control. With `CC1=C(O)C(=O)C=C2C1=CC=C1[C@@]2(C)CC[C@@]2(C)[C@@H]3C[C@](C)(C(=O)O)CC[C@]3(C)CC[C@]12C` [UI-1590], the “covalent adducts on RGS17” value on RGS17 [1] was “did not form adducts”. In addition, at RGS17 [2], the “shift of RGS17 Tm” value is 1.4 °C and the “effect on RGS17 thermal stability (DSF)” value was “stabilize RGS17 against thermal denaturing”. Besides, in test [3], the “inhibition of the interaction of RGS17 with Gαo” value (“inhibition … with Gαo” for short) is “dose dependent manner” and the inhibition at 100 µM is over 25%.

As for `CC(C)=CCC[C@]1(C)C=Cc2c(O)c3c(c(CC=C(C)C)c2O1)O[C@]12C(=C[C@@H]4C[C@H]1C(C)(C)O[C@@]2(C/C=C(/C)C(=O)O)C4=O)C3=O` [UI-1907], on RGS17 [2], the “effect on RGS17 thermal stability (DSF)” value is “alter the thermal stability of both RGS17 and Gαo; also recorded: bind both the RGS and G protein subunit in a non-specific manner”. Also, in test [3], the “inhibition … with Gαo” value is given as “dose dependent manner” and the inhibition at 100 µM is over 25%.

Take `C[n+]1cc2c3c(ccc2c2ccc4cc5c(cc4c21)OCO5)OCO3` [UI-5]: the “covalent adducts on RGS17” value on RGS17 [1] was “did not form adducts”. Besides, on RGS17 [2], the “shift of RGS17 Tm” value was 2.1 °C and the “effect on RGS17 thermal stability (DSF)” value is “stabilize RGS17 against thermal denaturing”. Besides, in test [3], the “inhibition … with Gαo” value is given as “dose dependent manner” and the inhibition at 100 µM was over 25%.

As to `O=c1c(-c2cc(O)c(O)c(O)c2)coc2cc(O)c(O)c(O)c12` [UI-1956, 5,6,7-trihydroxy-3-(3,4,5-trihydroxyphenyl)-4H-chromen-4-one], the “covalent adducts on RGS17” value on RGS17 [1] is on record as “did not form adducts”. For the same compound, on RGS17 [2], the “shift of RGS17 Tm” value came out at 1.0 °C and the “effect on RGS17 thermal stability (DSF)” value is given as “stabilize RGS17 against thermal denaturing”. Also, the inhibition at 100 µM in test [3] (100 μM compound, from dose-response experiments) was over 25%. Moreover, in test [3], the “inhibition … with Gαo” value is “dose dependent manner”.
